Measured values reported in US5877185A, “Synergistic compositions useful as anti-tumor agents” (priority 1995, dated 1999).

Experiments:
[1] = tested on: pADPRT; assay: pADPRT zinc content / zinc ejection; format: biochemical; details: 25° C.
Method: FIG. 2A is a graph comparing the effects of NOBA and INOBA on the enzyme activity and zinc content of pADPRT. Inactivation was performed as described in Example III. In these experiments ^65 Zn^2+ -labeled pADPRT was used. The Zn^2+ content of pADPRT (upper panel) was determined as follows: two parallels of aliquots (4 μl) were pipetted into 500 μl of ice-cold washing solution (50 mM Tris, pH 7.7, 10 mM 2-mercaptoethanol and 0.5 mM EDTA) then filtered onto GF/C disks presoaked in washing solution (cold), quickly washed 4 times with 1 ml of ice-cold washing solution, dried, and the radioactivity determined. The protein-bound ^65 Zn^2+ is shown as percent of the untreated sample. Enzyme assays (lower panel) were performed as in FIG. 1.
For the release of Zn^2+ from transblotted pADPRT, the enzyme (3 μg per lane) was separated on SDS-PAGE, transblotted onto a nitrocellulose membrane, and renatured in the presence of ^65 ZnCl2. […] After incubation, 1 ml of the supernatant was counted for radioactivity, and the strips were washed 3 times with 2 ml of 50 mM Tris-HCl pH 7.4), 0.5 mM EDTA and 10 Mm 2-mercaptoethanol, and then dried and exposed to X-ray film. The intensity of the autoradiographic spots was quantitated by a scanner. […]

[2] = tested on: L 1210; assay: cytotoxicity of INO2 BA with and without BSO, L 1210; format: cell-based, murine; details: Mus musculus, L1210, INO2 BA alone, 48 hours
Method: (§1) The concentration of BSO was 1 mM for all cell lines except HT 144, where the concentration was 0.25 mM. Cells were seeded in the recommended growth medium at a density of 1.5×10^4 cell/cm^2 into 2 cm^2 wells. Drugs were added simultaneously 4 hours after seeding, and incubation was continued for 48 hours at 37° C. in a 5% CO2 atmosphere. For assessment of drug effects cells were detached by trypsinization and counted in a hemacytometer.
(§2) Cell lines Nos. 1-4 were obtained from Dr. C. Benz, University of California, San Francisco. MDA 468 and MCF-7 human mammary cancer lines, MCF-7-B-ADR drug-resistant mammary cancer line, Du 145 drug-resistant human prostate cancer line, HT 144 human melanoma cell line, Hep-G2 human hepatocellular carcinoma line, and PC-12 rat pheochromocytoma line were obtained from the University of California Cell Culture Facility.

[3] = tested on: Du 145; assay: cytotoxicity of INO2 BA with and without BSO, Du 145; format: cell-based; details: Homo sapiens
Method: as §1, §2

[4] = tested on: SIV-infected CEM ×174 cells; assay: viability of SIV-infected CEM ×174 cells, tetrazolium (MTT) assay; format: cell-based, human; details: day 10
Excerpt: In both (A) and (B) the ordinate represents cell viability on day 10 of the assay and the abscissa represents the concentration of INO2 BA in the absence of BSO (FIG. 4A), and in the presence of BSO (FIG. 4B).
CEM ×174 cells (3×10^5 /ml) were infected with 3.75 TCID50 /ml (50% tissue culture infectious dosage per ml of cell suspension) stock solution of SIVmac239 or virus isolates from SIVmac239-infected rhesus macaques on day 0. Uniform infection of cells was ensured by the infection of one cell population only per virus preparation. Three days post-infection, the cells were distributed (500 μl/well) into individual wells of a 24-well plate. Fresh medium containing INO2 BA concentrations ranging from 0 to 300 μM and/or BSO concentrations ranging from 0 to 0.25 mM were added to establish final 1-ml reaction volumes, and the cultures were further incubated for 4 days. […] Cell viability and virus titers in the supernatant were determined on day 10 (3 days after the addition of new cells) by the tetrazolium (MTT) method of Hansen et al., J. Immunol. […]
The viability of infected and uninfected cell cultures was determined by the method of Hansen et al., J. Immunol. […] Following overnight incubation at 37° C., optical absorbance were measured at 570 nm using a microtiter plate reader (Molecular Devices Corp., Sunnyvale, Calif.).

[5] = tested on: PC-12; assay: cytotoxicity of INO2 BA with and without BSO, PC-12; format: cell-based; details: Rattus norvegicus, INO2 BA alone, 48 hours
Method: as §1, §2

| Structure (SMILES) | time in which zinc ejection was complete [1] [h] | IC50 ([2]; read-out: I50) [µM] | IC100 ([2]; read-out: LD100) [µM] | IC100 ([3]; DU-145, 48 h, read-out: LD100) [µM] | IC50 ([3]; DU-145, INO2 BA alone, 48 hours, read-out: I50) [µM] | apparent cell viability [4] | IC50 ([5]; read-out: I50) [µM] | IC100 ([5]; read-out: LD100) [µM] |
| --- | --- | --- | --- | --- | --- | --- | --- | --- |
| NC(=O)c1cccc(N=O)c1 [NOBA, 3-nitrosobenzamide] | ≤ 2 |  |  |  |  |  |  |  |
| NC(=O)c1ccc(I)c([N+](=O)[O-])c1 [INO2 BA, 4-iodo-3-nitrobenzamide] |  | 128 | 256 | 250 | 120 | protected | 60 | 120 |
